{"source": "patent US9371335B2", "about": "“Spirothienopyran-piperidine derivatives as ORL-1 receptor antagonists for their use in the treatment of alcohol dependence and abuse” (Eli Lilly and Company, priority 2011, dated 2016)", "key": {"[1]": {"system": "extracellular dopamine (DA) in the rat nucleus accumbens", "test": "Ethanol-stimulated increases in extracellular dopamine levels in the nucleus accumbens (microdialysis)", "assay_type": "in vivo, Sprague-Dawley rats", "description": "Ethanol-Stimulated Increases in Extracellular Dopamine Levels in the Nucleus Accumbens:\nMale Sprague-Dawley rats with a body weight of 260-300 g from Taconic Farms (Germantown, N.Y.) are implanted with a guide cannula (Bioanalytical Systems Inc, West Lafayette, Ind.) in the nucleus accumbens by the vendor 5-7 days before the experiment. Stereotaxic coordinates for the nucleus accumbens cannula are: A (anterior to bregma), 1.7 mm; L (lateral from the midsagittal suture, right side), 1.0 mm; and V (ventral from the dura surface), −6.0 mm (Paxinos and Watson, 1986). A concentric type probe (BR-2) from Bioanalytical Systems Inc. (West Lafayette, Ind.) is flushed with water and carefully inserted through the cannula about 16 hours before the experiment so that 2 mm of the membrane tip extends below the end of the guide cannula. The rat is then placed in a plastic test bowl to acclimate overnight. Based on methods modified from Melendez et al. (Melendez R I, Rodd-Henricks Z A, McBride W J and Murphy J M (2003), Alcohol stimulates the release of dopamine in the ventral pallidum but not in the globus pallidus: a dual-probe microdialysis study. Neuropsychopharmacology 28:939-946), the rat is connected to a fraction collection system for freely moving animals on the morning of the experiment (Raturn, BioAnalytical Systems Inc, West Lafayette, Ind.). The input tube of the dialysis probe is connected to a syringe pump (BeeHive and BabyBee, Bioanalytical Systems Inc, West Lafayette, Ind.) which delivers an artificial cerebrospinal fluid (150 mM NaCl, 3 mM KCl, 1.7 mM CaCl2 and 0.9 mM MgCl2 ([…])) to the probe at a final collection rate of 1.5 μL/min. The output tubes from the rats are attached to a refrigerated fraction collector (Bioanalytical Systems Inc, West Lafayette, Ind.). After a period of about an hour at an initial perfusion rate of 5.0 μL/min, the flow rate is decreased to 2.0 μL/min for equilibration of the probe and establishment of stable baseline levels for 1 hour, then collection of 20 minute fractions is started. Four baseline samples are collected before injection of any drugs.\nTest compound is administered orally at 30 mg/kg (2 ml/kg dose volume, dissolved in a vehicle consisting of 20% Captisol® in 25 mM phosphate buffer at pH=3). The compound is administered either alone (10 min into the 4th sample; 0 min time point) or in combination with ethanol (10 min into the 1st sample; −60 min time point). Ethanol is administered intraperitoneally (ip) at a dose of 1.1 g/kg in a 15% (v/v) solution in 0.9% saline in a volume of 2.9 ml per rat. Ethanol is administered 10 min into the 4th sample (0 min time point). Dialysate samples are transferred to an Alcott 718 Autosampler/Injector with the sample cooling tray set to 5° C. (Alcott Inc., Norcross, Ga.). […]"}, "msP rats": {"system": "msP rats", "test": "Stress-induced (yohimbine) reinstatement of ethanol-seeking in msP rats", "assay_type": "in vivo, rat", "details": "for Reduction vs. Vehicle (lever presses, yohimbine reinstatement) / Avg Lever Presses (Drug-treated): male msP rats, 30 mg/kg oral; for Avg Lever Presses (Drug-treated): yohimbine 2.0 mg/kg ip; for stress-induced reinstatement of ethanol-seeking: msP rats, result in words", "description": "Stress-Induced Reinstatement in msP Rats:\nStress is a key trigger for relapse to drug- and alcohol-seeking in humans and rodents (Sinha R (2008) Chronic stress, drug use, and vulnerability to addiction. Ann N Y Acad Sci 1141:105-130), and can be modeled in rats using a stress-induced reinstatement procedure. In this procedure, stress-induced reinstatement of alcohol-seeking is elicited by administration of the alpha2 adrenoceptor antagonist yohimbine, a known pharmacological stressor (Le A D, Harding S, Juzytsch W, Funk D and Shaham Y (2005) Role of alpha-2 adrenoceptors in stress-induced reinstatement of alcohol seeking and alcohol self-administration in rats. Psychopharmacology (Berl) 179:366-373).\nMale msP rats are obtained from the University of Camerino (Marche, Italy) and individually housed with ad libitum access to water and standard laboratory chow. Rats are trained to lever press for 10% ethanol in water (v/v) in standard operant chambers (MED Associates, Inc., St. Albans, Vt.) located in sound-attenuating, ventilated environmental cubicles. The chambers consist of two stainless steel and two clear Plexiglas walls. The floor grid of the operant chambers consists of 0.5 cm diameter stainless steel bars placed approximately 1.5 cm apart. Each operant chamber is equipped with a drinking reservoir 4 cm above the grid floor, with two retractable operant levers located approximately 3 cm on either side of the drinking receptacle. Fluid delivery, lever presses, and presentation of visual stimuli (illumination of a white house light) are controlled by an IBM compatible computer for offline analysis.\nRats are first trained to self-administer ethanol solution in 30-min daily operant sessions under a FR1 schedule of reinforcement, in which each response on the active lever results in delivery of 0.1 ml of ethanol. Each ethanol delivery is associated with a 5-sec time-out signalled by illumination of a white house light. Alcohol self-administration training continues until stable baseline responding is achieved. […] The procedure of each session is the same as ethanol self-administration sessions except that the lever responses are no longer reinforced. Animals are pre-treated with vehicle for 3 days before the initial administration of ORL-1 receptor antagonists in order to familiarize them with the oral administration procedure. The msP rats are then subjected to the reinstatement test conducted under the same extinction conditions. Reinstatement consists of oral administration of vehicle or test compound (3 or 30 mg/kg, n=10/group, solubilized in a 1:1 mixture of distilled water and 1M H3PO4, using gentle warming in a 45-60° C. water bath), followed 30-min later by intraperitoneal administration of yohimbine (2.0 mg/kg) 30-min before the operant session."}, "[2]": {"details": "compound 30 mg/kg oral + EtOH 1.1 g/kg ip"}}}
{"molecule": "Cc1nn(-c2ncccc2CO)cc1CN1CCC2(CC1)OCC(F)(F)c1cc(Cl)sc12", "note": "[Compound 1, [2-[4-[(2-chloro-4,4-difluoro-spiro[5H-thieno[2,3-c]pyran-7,4′-piperidine]-1′-yl)methyl]-3-methyl-pyrazol-1-yl]-3-pyridyl]methanol]", "values": [{"measurement": "Mean DA level (% of baseline) during 120 min period post-EtOH injection", "setting": "[1]; [2]", "value": "102.78 % of baseline"}, {"measurement": "Reduction of DA response relative to Vehicle", "setting": "[1]; [2]", "value": 88.16, "unit": "%"}, {"measurement": "Mean DA level (% of baseline) during 120 min period post-EtOH injection", "setting": "[1]; compound 30 mg/kg oral + Vehicle (no ethanol)", "value": "98.53 % of baseline"}, {"measurement": "ethanol-stimulated increase in extracellular DA concentration in the nucleus accumbens", "setting": "[1]; result in words", "value": "prevent the increase in extracellular DA concentrations in the nucleus accumbens"}, {"measurement": "Reduction vs. Vehicle (lever presses, yohimbine reinstatement)", "setting": "msP rats", "value": 72.7, "unit": "%"}, {"measurement": "Avg Lever Presses (Drug-treated)", "setting": "msP rats", "value": 4.8}, {"measurement": "stress-induced reinstatement of ethanol-seeking", "setting": "msP rats", "value": "reduce stress-induced reinstatement of ethanol-seeking"}]}
{"molecule": "Cc1nn(-c2ncccc2F)cc1CN1CCC2(CC1)OCC(F)(F)c1cc(Cl)sc12", "note": "[Compound 2, 2-Chloro-4,4-difluoro-1′-[[1-(3-fluoro-2-pyridyl)-3-methyl-pyrazol-4-yl]methyl]spiro[5H-thieno[2,3-c]pyran-7,4′-piperidine]]", "values": [{"measurement": "Reduction vs. Vehicle (lever presses, yohimbine reinstatement)", "setting": "msP rats", "value": 69.3, "unit": "%"}, {"measurement": "Avg Lever Presses (Drug-treated)", "setting": "msP rats", "value": 5.5}, {"measurement": "stress-induced reinstatement of ethanol-seeking", "setting": "msP rats", "value": "reduce stress-induced reinstatement of ethanol-seeking"}]}
